{
  "source": "patent US20070293539A1",
  "about": "“Methods for the treatment of synucleinopathies” (priority 2004, published 2007)",
  "key": {"α-synuclein [1]": {"test_system": "α-synuclein", "experiment": "α-synuclein degradation assay in transfected COS-7 cells, quantitative Western blotting", "assay_type": "cell-based", "description": "Plasmids: C220S cDNA was generated by PCR site-specific mutagenesis. For the PCR, the 5′ primer is uchforw SEQ ID NO: 1 ([…]), and 3′ primer is uchc220s SEQ ID NO:2 (CTAAGA […]). Wt UCH-L1 served as the template. The PCR fragment was inserted into pcDNA vector. For S18YC220S mutant, S18Y UCH-L1 served as the template in PCR. For the FLAG tagged UCH-L1, the 5′ primer is FLAGuchforw SEQ ID NO: 3 ([…] CGATGGAG), and the 3′ primer is uchrev SEQ ID NO: 4 ([…]). Wt UCH-L1 or C220S served as the template. PCR fragment was purified and inserted into pcDNA vector. For the FLAG tagged UCH-L3, the 5′ primer is L3HindIII SEQ ID NO: 5 (CTAAAGCTTATGGACTAC […]), the 3′ primer is L3XhoISAA SEQ ID NO: 6 ([…]). […] After 24 hours of incubation, the cells were lysed with Tris buffer (50 mM Tris, 2% SDS, 0.1% NP-40), and subjected to SDS-PAGE, followed by quantitative Western blotting.\n(§1) Western Blotting: Following transfer of SDS gels onto NC membrane, all membranes were blocked with 5% non-fat milk in TBST (50 mM Tris-HCl pH7.4, 150 mM NaCl, 0.1% Tween 20), and incubated with primary antibody overnight with 1% BSA in TBST, washed three times with TBST, and incubated with horseradish peroxidase-conjugated secondary antibody for 1 hour (Promega). Bound antibodies were detected using enhanced chemiluminascence (NEM). […]"}, "[2]": {"conditions": "taken in a low dose; cited from earlier work"}, "[3]": {"conditions": "human, in vivo; cited from earlier work"}, "UCH-L1 [4]": {"test_system": "UCH-L1", "experiment": "2D electrophoresis and Western blotting of membrane-bound and cytosolic UCH-L1 in SH-SY5Y cells", "assay_type": "cell-based", "conditions": "compared to cells treated with DMSO", "description": "2D electrophoresis: For the isolation of total cellular protein, cultured SH-SY5Y cells maintained as described above were rinsed with ice-cold PBS. Cells were lysed in 1 ml dSDS buffer (50 mM Tris-HCl, pH 8.0 0.1% SDS) supplemented with protease inhibitor cocktail. Lysates were boiled for 3 min, and were treated with Dnase and Rnase as described. Lysates were precipitated with ice-cold acetone for at least 2 hours, and pellets were resuspended in 2D sample buffer (8M urea, 0.5% CHAPS, 0.2% DTT, 0.5% IPG buffer, 0.002% bromophenol blue). 2D electrophoresis was carried out according to manufacture's protocol (Amersham Life Science). 7 cm pH 4-7 strips were used. For SH-SY5Y membrane fraction, culture SH-SY5Y cells were rinsed with cold PBS and harvested with lysis buffer (50 mM Tris-HCl, pH 8.0, 1 mM ZnAc2, 250 mM sucrose). Lysate was passed through 25G needles for several times and spun at 1000 g for 5 min. […]\nas §1"}, "UCH-L1 [5]": {"test_system": "UCH-L1", "experiment": "total amount and turnover of UCH-L1 in SH-SY5Y cells (pulse-chase experiment not shown)", "assay_type": "cell-based"}, "[6]": {"test_system": "SH-SY5Y cells infected by α-synuclein-expressing adenovirus", "experiment": "α-synuclein toxicity in SH-SY5Y cells infected by α-synuclein-expressing adenovirus (Trypan blue viable cell counting, MTT assay)", "assay_type": "cell-based", "conditions": "SH-SY5Y cells overexpressing α-synuclein via adenoviral vector, compared to DMSO", "description": "(§2) Viral Infection: Viral infection and MTT assay in SH-SY5Y cells: The viruses were amplified and purified according to the published procedure. SH-SY5Y cells were grown on 100 mm petri-dishes and induced with 100 nM RA for 3-5 days before the virus infection with M.I.O at 75. Viruses were diluted with DPBS to desired M.I.O. After four hours of incubation, 10 ml growth medium was added. On the second day, cells were splitted into 96-well plates and treated with compounds for next 48 hours. The growth medium in each well was replaced with growth medium with 5 ug/ml MTT. Medium was removed after three hours incubation, and 200 ul isopropyl (0.04N HCl) was added into each well. The signal was read at 570 nm.\nViable cell counting: At stated time poins, SH-SY5Y cells were trypsinized with 100 ul trypsin-EDTA for 1 minute and neutralized with 400 ul growth medium. Cell suspension was made up by mixing 0.2 ml of cells in growth medium, 0.3 ml of HBSS and 0.5 ml of 0.4% Trypan Blue solution. Viable cell numbers were counted by standard cell counting chamber.\nSince α-synuclein neurotoxicity is dose-dependent, it follows that accumulation of α-synuclein, caused by UCH-L1 farnesylation, should promote its toxicity. […] These cells express high endogenous levels of UCH-L1. […] The unit of y-axis is 10^5/ml. (F) Cell viability was assessed by the amount of metabolic activity using MTT assay. […]"}, "α-synuclein [7]": {"test_system": "α-synuclein", "experiment": "α-synuclein accumulation in SH-SY5Y cells infected with α-synuclein-expressing adenovirus, Western blotting normalized against actin", "assay_type": "cell-based", "description": "as §2\nWestern Blotting: Following transfer of SDS gels onto NC membrane, all membranes were blocked with 5% non-fat milk in TBST (50 mM Tris-HCl pH7.4, 150 mM NaCl, 0.1% Tween 20), and incubated with primary antibody overnight with 1% BSA in TBST, washed three times with TBST, and incubated with horseradish peroxidase-conjugated secondary antibody for 1 hour (Promega). Bound antibodies were detected using enhanced chemiluminascence (NEM).\nSince α-synuclein neurotoxicity is dose-dependent, it follows that accumulation of α-synuclein, caused by UCH-L1 farnesylation, should promote its toxicity. […] (F) Cell viability was assessed by the amount of metabolic activity using MTT assay. […]"}},
  "note": "Entries after “also recorded” stand apart in the source; their conditions may differ.",
  "data": [
    {"smiles": "CC(=O)N[C@@H](CSC(=O)[C@]1([C@@H](O)C(C)C)NC(=O)[C@H](C)[C@@H]1O)C(=O)O", "note": "[lactacysteine]", "values": [
      {"measurement": "accumulation of α-synuclein", "setting": "α-synuclein [1]; transfected COS-7 cells, 16 kDa α-synuclein normalized against actin", "value": 100, "unit": "%"}
    ]},
    {"smiles": "C#CCN(C)[C@H](C)Cc1ccccc1", "note": "[selegiline]", "values": [
      {"measurement": "delay of the need for levodopa", "setting": "[2]", "value": "roughly three"}
    ]},
    {"smiles": "N[C@@H](Cc1ccc(O)c(O)c1)C(=O)O", "note": "[levodopa]", "values": [
      {"measurement": "patients that do not respond", "setting": "[3]", "value": "About 15%"}
    ]},
    {"smiles": "COC(=O)[C@H](CCSC)NC(=O)c1ccc(NC[C@@H](N)CS)cc1-c1ccccc1", "note": "[FTI-277]", "values": [
      {"measurement": "amount of cytosolic UCH-L1", "setting": "UCH-L1 [4]", "value": "without affecting"},
      {"measurement": "amount of membrane bound UCH-L1", "setting": "UCH-L1 [4]", "value": "significant decrease; also recorded: decreased the amount of the membrane-associated species; also recorded: reducing the amount of membrane-associated protein"},
      {"measurement": "total amount of UCH-L1", "setting": "UCH-L1 [5]", "value": "reduced the total amount of UCH-L1"},
      {"measurement": "rate of turnover of UCH-L1", "setting": "UCH-L1 [5]; pulse-chase experiment not shown", "value": "increased its rate of turnover"},
      {"measurement": "α-synuclein toxicity (loss of cells)", "setting": "[6]", "value": "inhibits synuclein toxicity; also recorded: rescued α-synuclein toxicity; also recorded: significantly decreased loss of cells"},
      {"measurement": "amount of α-synuclein", "setting": "α-synuclein [7]", "value": "reducing the amount of α-synuclein accumulation; also recorded: reduced the amount of α-synuclein"},
      {"measurement": "synuclein level", "setting": "α-synuclein [1]; COS-7 cells", "value": "lowers synuclein level"}
    ]}
  ]
}
